Data taken from publication PMC5496928, “Data driven polypharmacological drug design for lung cancer: analyses for targeting ALK, MET, and EGFR” (Journal of Cheminformatics, 2017).

Tests used:
[1] = target: T1, ALK (Homo sapiens, UniProt Q9UM73); set-up: method as in PMID 20033049; conditions: cited from earlier work
T1 construct: purchased DiscoverX

[2] = target: T2, MET (Homo sapiens, UniProt P08581); conditions: cited from earlier work
T2 construct: purchased DiscoverX

[3] = tested on: EGFR; set-up: method as in PMID 20033049; conditions: cited from earlier work
[4] = target: T1, ALK; test: KdELECT binding assay (DiscoverX); conditions: read-out: Kd study, ALK
Description: (§1) Tests of the compounds confirm suitability for ALK + MET + EGFR polypharmacology optimization (Table 1). […] For compound 1, ^3 with the acrylamide function at the site corresponding to that of WZ4002, both ALK and MET binding were inhibited more weakly compared to EGFR binding. […] The sensitivity to the assay conditions seen for both forms of EGFR and uniformly tighter binding under the new assay conditions may indicate tighter binding for ALK and MET under these altered assay conditions as well.
(§2) The three tricyclic compounds (1, 2a and 2b) were purchased from the company ARTTSynthesis (www.arttsynthesis.com). Tests for binding properties were performed by the company DiscoverX (www.discoverx.com), using a concentration of 1 µM against ALK, MET and EGFR variants L858R and L858R_T790M) using KdELECT and scanKINETIC from DiscoverX [124, 125].

[5] = target: T3, EGFR (L858R) (Homo sapiens, UniProt P00533, L858R); test: KdELECT binding assay (DiscoverX); conditions: read-out: Kd study, EGFR LR
T3 construct: purchased DiscoverX
Description: as §1, §2

[6] = target: T4, EGFR (L858R, T790M) (Homo sapiens, UniProt P00533, L858R/T790M); test: KdELECT binding assay (DiscoverX); conditions: read-out: Kd study, EGFR LR+TM
T4 construct: purchased DiscoverX
Description: as §1, §2

[7] = target: T2, MET; test: KdELECT binding assay (DiscoverX); conditions: read-out: Kd study, MET
Description: as §1, §2

[8] = target: T3, EGFR (L858R); test: scanKINETIC binding kinetics assay (DiscoverX); conditions: for Percentage comparing 1 or 6 h incubation, EGFR LR: percentages significantly lower than 100% indicate slow association; for Percentage after 30× dilution, EGFR LR: apparent residual compound relative to bound value at 1 h, significantly higher than 3% indicates slow dissociation
Description: as §1
(§3) The kinetics testing results (Table 1) support several further important conclusions. […] The simultaneous appearance of slow association and slow dissociation complicates the interpretation of the results, but the percentage values shown in Table 1 show the apparent residual amounts of compounds relative to bound values at 1 h. These values indicate retention of roughly half of compound 1, and nearly all of compound 2a, after dilution. […] The similarity of compound 2a to 2b and 1 with respect to structure and binding strength, differing only in the linker to the acrylamide binding group, is further evidence that that it is the covalent binding property that determines the difference in binding kinetics, rather than e.g. a slow conformational change of the target enzymes.
as §2

[9] = target: T4, EGFR (L858R, T790M); test: scanKINETIC binding kinetics assay (DiscoverX); conditions: for Percentage comparing 1 or 6 h incubation, EGFR LR+TM: percentages significantly lower than 100% indicate slow association; for Percentage after 30× dilution, EGFR LR+TM: apparent residual compound relative to bound value at 1 h, significantly higher than 3% indicates slow dissociation
Description: as §1, §3, §2

[10] = tested on: EGFR (L858R) and EGFR (L858R, T790M); test: scanKINETIC conclusions stated in text for both EGFR forms together; assay type: binding; conditions: for Dissociation behaviour: 30-fold dilution following one hour of incubation; for Association behaviour: comparing 1-h and 6-h incubation times; for Retention of compound after dilution: relative to bound values at 1 h; for Covalent binding to EGFR (both forms): interpretation of kinetics data
Description: as §1, §3, §2

[11] = tested on: MET mutant Y1230C; set-up: method as in PMID 19459657; conditions: cellular assay; cited from earlier work
[12] = Kd, EGFR LR (1 h), scanKINETIC, 1 h incubation
[13] = Kd, EGFR LR (6 h), scanKINETIC, 6 h incubation
[14] = Kd, EGFR LR+TM (1 h), scanKINETIC, 1 h incubation
[15] = Kd, EGFR LR+TM (6 h), scanKINETIC, 6 h incubation
[16] = Apparent Kd, EGFR LR (30× dilution), 30× dilution after 1 h incubation
[17] = Apparent Kd, EGFR LR+TM (30× dilution), 30× dilution after 1 h incubation

T1 sequence (Q9UM73 19-1620): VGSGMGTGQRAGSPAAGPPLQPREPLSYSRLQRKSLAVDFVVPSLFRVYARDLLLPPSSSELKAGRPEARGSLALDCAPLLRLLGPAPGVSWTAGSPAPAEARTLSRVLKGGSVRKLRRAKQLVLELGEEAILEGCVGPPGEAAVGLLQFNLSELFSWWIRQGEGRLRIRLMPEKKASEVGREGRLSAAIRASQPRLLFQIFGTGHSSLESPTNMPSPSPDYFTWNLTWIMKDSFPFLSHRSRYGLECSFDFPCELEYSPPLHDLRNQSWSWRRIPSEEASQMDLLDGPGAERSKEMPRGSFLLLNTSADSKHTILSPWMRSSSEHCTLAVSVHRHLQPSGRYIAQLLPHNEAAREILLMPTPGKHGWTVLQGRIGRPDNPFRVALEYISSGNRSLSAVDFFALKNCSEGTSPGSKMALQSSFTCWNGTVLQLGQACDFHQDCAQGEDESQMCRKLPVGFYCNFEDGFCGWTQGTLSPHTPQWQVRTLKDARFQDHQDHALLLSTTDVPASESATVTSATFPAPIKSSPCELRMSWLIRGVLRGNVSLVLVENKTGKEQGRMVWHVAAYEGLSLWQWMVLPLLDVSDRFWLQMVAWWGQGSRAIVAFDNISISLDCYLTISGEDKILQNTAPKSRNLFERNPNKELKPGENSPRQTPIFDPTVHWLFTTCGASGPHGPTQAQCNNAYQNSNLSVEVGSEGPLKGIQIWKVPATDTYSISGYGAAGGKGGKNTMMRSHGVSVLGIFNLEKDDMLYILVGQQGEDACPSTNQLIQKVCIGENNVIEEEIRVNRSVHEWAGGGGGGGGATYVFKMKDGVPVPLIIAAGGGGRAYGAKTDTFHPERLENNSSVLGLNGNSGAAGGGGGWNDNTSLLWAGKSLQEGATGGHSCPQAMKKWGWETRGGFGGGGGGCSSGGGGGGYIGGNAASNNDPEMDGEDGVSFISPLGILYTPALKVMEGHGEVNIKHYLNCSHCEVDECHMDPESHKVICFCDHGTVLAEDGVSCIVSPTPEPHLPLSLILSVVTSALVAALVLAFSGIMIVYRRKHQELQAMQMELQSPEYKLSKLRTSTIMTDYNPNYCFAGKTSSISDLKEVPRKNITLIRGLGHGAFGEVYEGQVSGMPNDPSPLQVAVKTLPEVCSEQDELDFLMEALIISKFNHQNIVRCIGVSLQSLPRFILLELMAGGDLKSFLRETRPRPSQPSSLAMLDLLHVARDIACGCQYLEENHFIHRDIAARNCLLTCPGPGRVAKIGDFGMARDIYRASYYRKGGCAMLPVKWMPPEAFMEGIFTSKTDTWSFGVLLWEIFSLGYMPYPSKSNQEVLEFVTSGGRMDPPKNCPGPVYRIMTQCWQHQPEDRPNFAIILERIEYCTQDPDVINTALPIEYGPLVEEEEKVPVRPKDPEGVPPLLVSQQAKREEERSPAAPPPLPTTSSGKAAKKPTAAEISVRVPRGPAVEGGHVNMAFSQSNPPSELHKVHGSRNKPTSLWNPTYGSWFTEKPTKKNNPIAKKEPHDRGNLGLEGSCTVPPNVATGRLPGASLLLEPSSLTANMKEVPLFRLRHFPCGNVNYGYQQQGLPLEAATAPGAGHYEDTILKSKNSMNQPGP
T2 sequence (P08581 25-1390): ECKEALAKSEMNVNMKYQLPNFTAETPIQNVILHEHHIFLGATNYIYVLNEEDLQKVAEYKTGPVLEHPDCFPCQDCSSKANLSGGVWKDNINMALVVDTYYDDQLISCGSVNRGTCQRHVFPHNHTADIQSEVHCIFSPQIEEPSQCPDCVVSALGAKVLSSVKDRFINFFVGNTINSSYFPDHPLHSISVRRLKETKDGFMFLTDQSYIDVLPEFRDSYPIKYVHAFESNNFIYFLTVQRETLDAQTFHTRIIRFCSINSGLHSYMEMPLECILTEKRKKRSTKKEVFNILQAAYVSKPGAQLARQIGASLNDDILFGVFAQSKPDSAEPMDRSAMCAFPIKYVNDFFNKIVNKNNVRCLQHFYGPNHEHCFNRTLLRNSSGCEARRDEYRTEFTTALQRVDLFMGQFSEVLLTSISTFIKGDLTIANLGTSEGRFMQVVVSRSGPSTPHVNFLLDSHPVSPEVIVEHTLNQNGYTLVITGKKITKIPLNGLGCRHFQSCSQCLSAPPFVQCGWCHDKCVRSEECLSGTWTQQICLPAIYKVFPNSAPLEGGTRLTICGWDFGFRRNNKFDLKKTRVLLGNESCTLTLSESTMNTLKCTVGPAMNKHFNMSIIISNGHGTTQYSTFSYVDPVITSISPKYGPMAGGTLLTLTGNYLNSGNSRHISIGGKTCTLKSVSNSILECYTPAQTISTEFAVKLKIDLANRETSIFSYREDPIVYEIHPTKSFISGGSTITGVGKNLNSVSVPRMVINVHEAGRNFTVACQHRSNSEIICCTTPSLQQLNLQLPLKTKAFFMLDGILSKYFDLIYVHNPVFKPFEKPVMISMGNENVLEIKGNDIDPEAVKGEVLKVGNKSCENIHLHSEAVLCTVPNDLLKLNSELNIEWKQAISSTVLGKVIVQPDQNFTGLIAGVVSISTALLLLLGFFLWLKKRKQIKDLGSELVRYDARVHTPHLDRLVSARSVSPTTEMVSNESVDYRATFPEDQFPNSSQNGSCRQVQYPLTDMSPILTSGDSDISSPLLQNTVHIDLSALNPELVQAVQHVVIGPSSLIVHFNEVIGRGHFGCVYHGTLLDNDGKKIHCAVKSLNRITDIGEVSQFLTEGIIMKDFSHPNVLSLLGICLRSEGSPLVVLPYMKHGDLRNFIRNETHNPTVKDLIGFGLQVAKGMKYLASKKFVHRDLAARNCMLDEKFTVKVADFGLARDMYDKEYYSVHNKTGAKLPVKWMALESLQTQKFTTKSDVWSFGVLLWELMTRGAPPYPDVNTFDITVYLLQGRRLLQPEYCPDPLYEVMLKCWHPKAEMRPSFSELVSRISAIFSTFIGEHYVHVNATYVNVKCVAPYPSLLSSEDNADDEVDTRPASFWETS

Row | Structure (SMILES) | Kd [4] | Kd [5] | Kd [6] | Kd [7] | Kd [8, 12] | Kd [8, 13] | Percentage comparing 1 or 6 h incubation, EGFR LR [8] | Kd [9, 14] | Kd [9, 15] | Percentage comparing 1 or 6 h incubation, EGFR LR+TM [9] | Dissociation behaviour [10] | Association behaviour [10] | Retention of compound after dilution [10] | Kd [8, 16] | Percentage after 30× dilution, EGFR LR [8] | Kd [9, 17] | Percentage after 30× dilution, EGFR LR+TM [9] | Covalent binding to EGFR (both forms) [10] | other results
1 | C=CC(=O)Nc1cccc(Oc2nc(Nc3ccc(N4CCN(C)CC4)cc3OC)ncc2Cl)c1 [WZ4002] |  |  |  |  |  |  |  |  |  |  |  |  |  |  |  |  |  |  | Binding to ALK [1]: known to bind; Binding to MET [2]: known to bind; Covalent binding to EGFR [3]: known to bind covalently to EGFR
2 | C=CC(=O)Nc1cccc(Nc2nc(Nc3ccccc3)ncc2Cl)c1 [compound 1, N‐(3‐{[5‐chloro‐2‐(phenylamino)pyrimidin‐4‐yl]amino}phenyl)prop‐2‐enamide] | 0.8 µM | 0.42 µM | 0.11 µM | > 1 µM | 0.057 µM | 0.0057 µM | 10% | 0.025 µM | 0.0032 µM | 13% | slow dissociation behavior | relatively slow-binding | roughly half |  |  |  |  |  | 
3 | C=CC(=O)Nc1cccc(Nc2ncc(Cl)c(Nc3ccccc3)n2)c1 [compound 2a, N‐(3‐{[5‐chloro‐4‐(phenylamino)pyrimidin‐2‐yl]amino}phenyl)prop‐2‐enamide] | 0.34 µM | 0.71 µM | 0.11 µM | 0.25 µM | 0.34 µM | 0.047 µM | 14% | 0.056 µM | 0.008 µM | 14% | slow dissociation behavior | relatively slow-binding | nearly all | 0.34 µM | 100% | 0.056 µM | 100% | able to bind covalently | 
4 | C=CC(=O)NCc1cccc(Nc2ncc(Cl)c(Nc3ccccc3)n2)c1 [compound 2b, N‐[(3‐{[5‐chloro‐4‐(phenylamino)pyrimidin‐2‐yl]amino}phenyl)methyl]prop‐2‐enamide] | 0.39 µM | 0.78 µM | 0.27 µM | 0.33 µM | 0.17 µM | 0.11 µM | 65% | 0.058 µM | 0.1 µM | 170% |  | fast association |  | 2.9 µM | 5.9% | 4.1 µM | 1.4% | no evidence of covalent binding | Time within which binding is complete [10]: ≤ 1 h; Time within which dissociation is complete ([10]; after 30-fold dilution): ≤ 5 h
5 | C[C@@H](Oc1cc(-c2cnn(C3CCNCC3)c2)cnc1N)c1c(Cl)ccc(F)c1Cl [crizotinib] |  |  |  |  |  |  |  |  |  |  |  |  |  |  |  |  |  |  | Weakening of binding to MET mutant Y1230C [11]: 15 fold
